Measured values from patent US11453703B2, “Heterotandem bicyclic peptide complexes” (BicycleTX Limited, priority 2018, dated 2022).

Tests used:
CD137 [1] = molecular target: T1, CD137 (Homo sapiens, UniProt Q07011); test: CD137 Biacore (SPR) binding assay; design: purchased R&D systems; conditions: biotinylated human CD137, 25° C.
Procedure: Biacore experiments were performed to determine ka (M^−1s^−1), kd (s^−1), KD (nM) values of heterotandem peptides binding to human CD137 protein. […] The protein was desalted to remove uncoupled biotin using spin columns into PBS.
For analysis of peptide binding, a Biacore T200 or a Biacore 3000 instrument was used with a XanTec CMD500D chip. Streptavidin was immobilized on the chip using standard amine-coupling chemistry at 25° C. with HBS-N (10 mM HEPES, 0.15 M NaCl, pH 7.4) as the running buffer. Briefly, the carboxymethyl dextran surface was activated with a 7 min injection of a 1:1 ratio of 0.4 M 1-ethyl-3-(3-dimethylaminopropyl) carbodiimide hydrochloride (EDC)/0.1 M N-hydroxy succinimide (NHS) at a flow rate of 10 μl/min. For capture of streptavidin, the protein was diluted to 0.2 mg/ml in 10 mM sodium acetate (pH 4.5) and captured by injecting 120 μl of onto the activated chip surface. Residual activated groups were blocked with a 7 min injection of 1 M ethanolamine (pH 8.5) and biotinylated CD137 captured to a level of 270-1500 RU. Buffer was changed to PBS/0.05% Tween 20 and a dilution series of the peptides was prepared in this buffer with a final DMSO concentration of 0.5%. The top peptide concentration was 500 nM with 6 further 2-fold or 3-fold dilutions. The SPR analysis was run at 25° C. at a flow rate of 90 μl/min with 60 seconds association and 900 seconds dissociation. After each cycle a regeneration step (10 μl of 10 mM glycine pH 2) was employed. Data were corrected for DMSO excluded volume effects as needed. All data were double-referenced for blank injections and reference surface using standard processing procedures and data processing and kinetic fitting were performed using Scrubber software, version 2.0c (BioLogic Software). Data were fitted using simple 1:1 binding model allowing for mass transport effects where appropriate.

CD137 [2] = molecular target: T1, CD137; test: CD137 reporter assay, co-culture with EphA2 tumour cells; type: cell-based; design: host or cells: Jurkat reporter cells; conditions: tumour target EphA2, co-culture with PC3, at 100 nM; read-out: Fold Induction over Background at 100 nM
Procedure: (§1) Culture medium referred to as R1 media is prepared by adding 1% FBS to RPMI-1640 (component of Promega kit CS196005). Serial dilutions of test articles in R1 are prepared in a sterile 96 well-plate. Use 25 μl per well of test articles or R1 (as a background control) to designated wells in white cell culture plate. Tumour cells* are harvested and resuspended at a concentration of 400,000 cells/mL in R1 media. Twenty five (25) μL/well tumour cells are used in white cell culture plate. Jurkat cells (Promega kit CS196005, 0.5 mL) are thawed in the water bath and then added to 5 ml pre-warmed R1 medium. Twenty five (25) μL/well Jurkat cells are used in white cell culture plate. Incubate the cells and test articles for 6h at 37° C., 5% CO2. At the end of 6 h, add 75 μl/well Bio-Glo™ (Promega) and incubate for 10 min before reading luminescence in a plate reader (Clariostar, BMG). The fold change relative to cells (Jurkat cells+Cell line used in co-culture) is calculated and plotted in GraphPad Prism as log(agonist) vs response to determine EC50 (nM) and Fold Induction over background (Max)

CD137 [3] = molecular target: T1, CD137; test: CD137 reporter assay, co-culture with PD-L1 expressing cell line RKO; type: cell-based; design: host or cells: Jurkat reporter cells; conditions: tumour target PD-L1, co-culture with RKO, 6 h; for fold induction: read-out: Fold Induction over Background
Procedure: as §1

T1 sequence (Q07011 24-255): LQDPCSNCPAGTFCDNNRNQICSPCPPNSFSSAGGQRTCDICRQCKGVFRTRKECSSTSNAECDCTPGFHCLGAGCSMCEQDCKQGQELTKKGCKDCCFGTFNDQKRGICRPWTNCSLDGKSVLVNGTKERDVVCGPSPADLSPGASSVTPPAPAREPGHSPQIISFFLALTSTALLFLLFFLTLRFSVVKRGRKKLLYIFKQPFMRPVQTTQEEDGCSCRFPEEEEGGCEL

SMILES | Fold Induction over Background (CD137 [3]) | fold induction (CD137 [3]) | other results
CCCC[C@@H]1NC(=O)[C@H](Cc2ccc(O)cc2)NC(=O)[C@@H]2CCCN2C(=O)[C@H](CC(=O)O)NC(=O)[C@@H](C)NC(=O)[C@H](Cc2ccccc2)NC(=O)[C@@H]2CSCCC(=O)N3CN(CN(C3)C(=O)CCSC[C@@H](C(=O)N[C@@H](CNC(=O)CCOCCOCCOCCOCCOCCOCCOCCOCCOCCOCCOCCOCCn3cc(CCC(=O)NCCC(=O)N(C)CC(=O)N(C)CC(=O)N(C)CC(=O)N(C)CC(=O)N(C)CC(=O)N(C)CC(=O)N(C)CC(=O)N(C)CC(=O)N(C)CC(=O)N(C)CC(=O)N[C@@H](C)C(=O)N[C@@H](CCCCNC(=N)N)C(=O)N[C@@H](CC(=O)O)C(=O)N[C@H]4CSCCC(=O)N5CN6CN(C5)C(=O)CCSC[C@H](NC(=O)[C@H](CC(C)C)NC(=O)[C@@H]5CCCN5C(=O)[C@H](CC(N)=O)NC(=O)[C@H](C(C)C)NC(=O)[C@H](CC(C)C)NC(=O)[C@@H]5C[C@@H](O)CN5C4=O)C(=O)N[C@@H](CC(C)C)C(=O)N[C@@H](Cc4c[nH]cn4)C(=O)N4CCC[C@H]4C(=O)N[C@H](CC(=O)O)C(=O)N[C@@H](Cc4c[nH]c5ccccc45)C(=O)N[C@@H](CCCCNC(=N)N)C(=O)N[C@H](C(N)=O)CSCCC6=O)nn3)C(N)=O)NC1=O)C(=O)CCSC[C@H](NC(=O)[C@H](C)NC(C)=O)C(=O)N[C@@H]([C@@H](C)CC)C(=O)N[C@@H](CCC(=O)O)C(=O)N[C@@H](CCC(=O)O)C(=O)NCC(=O)N[C@@H](CCC(N)=O)C(=O)N[C@@H](Cc1ccc(O)cc1)C(=O)N2 [BCY8942] | – | – | Kd (CD137 [1]): 853 nM; fold induction at 0.1 µM (CD137 [2]): < 2
CCCC[C@@H]1NC(=O)[C@H](Cc2ccc(O)cc2)NC(=O)[C@@H]2CCCN2C(=O)[C@H](CC(=O)O)NC(=O)[C@H](C)NC(=O)[C@H](Cc2ccccc2)NC(=O)[C@@H]2CSCCC(=O)N3CN(CN(C3)C(=O)CCSC[C@@H](C(=O)N[C@@H](C)C(N)=O)NC1=O)C(=O)CCSC[C@H](NC(C)=O)C(=O)N[C@@H](CC(C)(C)C)C(=O)N1CCC[C@H]1C(=O)N[C@@H](CCCCNC(=O)Cn1cc(CCC(=O)NCCCC[C@@H]3NC(=O)[C@H](CCC(N)=O)NC(=O)[C@@H]4CSCCC(=O)N5CN(CN(C5)C(=O)CCSC[C@@H](C(=O)N5CCC[C@H]5C(=O)N[C@@H](CO)C(=O)N[C@@H](Cc5c[nH]cn5)C(N)=O)NC(=O)[C@H](CC(C)C)NC(=O)[C@H](Cc5c[nH]cn5)NC(=O)[C@H](CC(C)C)NC3=O)C(=O)CCSC[C@H](NC(=O)[C@H](CCCCN)NC(=O)[C@H](CC(=O)O)NC(=O)[C@H](CO)NC(C)=O)C(=O)N[C@@H](CO)C(=O)N[C@@H](C)C(=O)NCC(=O)N[C@@H](Cc3c[nH]c5ccccc35)C(=O)N[C@@H](CC(C)C)C(=O)N[C@@H]([C@@H](C)O)C(=O)N[C@@H](CCSC)C(=O)N4)nn1)C(=O)N[C@H](C)C(=O)N1CCC[C@H]1C(=O)N[C@@H](Cc1ccc(O)cc1)C(=O)N2 [BCY11376] | 9 fold | – | –
CCCC[C@@H]1NC(=O)[C@H](Cc2ccc(O)cc2)NC(=O)[C@@H]2CCCN2C(=O)[C@H](CC(=O)O)NC(=O)[C@H](C)NC(=O)[C@H](Cc2ccccc2)NC(=O)[C@@H]2CSCCC(=O)N3CN(CN(C3)C(=O)CCSC[C@@H](C(=O)N[C@@H](CNC(=O)CCOCCOCCOCCOCCOCCn3cc(CCC(=O)NCCCC[C@@H]4NC(=O)[C@H](CCC(N)=O)NC(=O)[C@@H]5CSCCC(=O)N6CN(CN(C6)C(=O)CCSC[C@@H](C(=O)N6CCC[C@H]6C(=O)N[C@@H](CO)C(=O)N[C@@H](Cc6c[nH]cn6)C(N)=O)NC(=O)[C@H](CC(C)C)NC(=O)[C@H](Cc6c[nH]cn6)NC(=O)[C@H](CC(C)C)NC4=O)C(=O)CCSC[C@H](NC(=O)[C@H](CCCCN)NC(=O)[C@H](CC(=O)O)NC(=O)[C@H](CO)NC(C)=O)C(=O)N[C@@H](CO)C(=O)N[C@@H](C)C(=O)NCC(=O)N[C@@H](Cc4c[nH]c6ccccc46)C(=O)N[C@@H](CC(C)C)C(=O)N[C@@H]([C@@H](C)O)C(=O)N[C@@H](CCSC)C(=O)N5)nn3)C(N)=O)NC1=O)C(=O)CCSC[C@H](NC(C)=O)C(=O)N[C@@H](CC(C)(C)C)C(=O)N1CCC[C@H]1C(=O)N[C@@H](CCC(=O)O)C(=O)N[C@H](C)C(=O)N1CCC[C@H]1C(=O)N[C@@H](Cc1ccc(O)cc1)C(=O)N2 [BCY11381] | – | 7 | –
CCCC[C@@H]1NC(=O)[C@H](Cc2ccc(O)cc2)NC(=O)[C@@H]2CCCN2C(=O)[C@H](CC(=O)O)NC(=O)[C@H](C)NC(=O)[C@H](Cc2ccccc2)NC(=O)[C@@H]2CSCCC(=O)N3CN(CN(C3)C(=O)CCSC[C@@H](C(=O)N[C@@H](CNC(=O)CCOCCOCCOCCOCCOCCOCCOCCOCCOCCOCCOCCOCCn3cc(CCC(=O)NCCCC[C@@H]4NC(=O)[C@H](CCC(N)=O)NC(=O)[C@@H]5CSCCC(=O)N6CN(CN(C6)C(=O)CCSC[C@@H](C(=O)N6CCC[C@H]6C(=O)N[C@@H](CO)C(=O)N[C@@H](Cc6c[nH]cn6)C(N)=O)NC(=O)[C@H](CC(C)C)NC(=O)[C@H](Cc6c[nH]cn6)NC(=O)[C@H](CC(C)C)NC4=O)C(=O)CCSC[C@H](NC(=O)[C@H](CCCCN)NC(=O)[C@H](CC(=O)O)NC(=O)[C@H](CO)NC(C)=O)C(=O)N[C@@H](CO)C(=O)N[C@@H](C)C(=O)NCC(=O)N[C@@H](Cc4c[nH]c6ccccc46)C(=O)N[C@@H](CC(C)C)C(=O)N[C@@H]([C@@H](C)O)C(=O)N[C@@H](CCSC)C(=O)N5)nn3)C(N)=O)NC1=O)C(=O)CCSC[C@H](NC(C)=O)C(=O)N[C@@H](CC(C)(C)C)C(=O)N1CCC[C@H]1C(=O)N[C@@H](CCC(=O)O)C(=O)N[C@H](C)C(=O)N1CCC[C@H]1C(=O)N[C@@H](Cc1ccc(O)cc1)C(=O)N2 [BCY11019] | – | 6 | –
CCCC[C@@H]1NC(=O)[C@H](Cc2ccc(O)cc2)NC(=O)[C@@H]2CCCN2C(=O)[C@H](CC(=O)O)NC(=O)[C@H](C)NC(=O)[C@H](Cc2ccccc2)NC(=O)[C@@H]2CSCCC(=O)N3CN(CN(C3)C(=O)CCSC[C@@H](C(=O)N[C@@H](C)C(N)=O)NC1=O)C(=O)CCSC[C@H](NC(C)=O)C(=O)N[C@@H](CC(C)(C)C)C(=O)N1CCC[C@H]1C(=O)N[C@@H](CCCCNC(=O)CCOCCOCCOCCOCCOCCOCCOCCOCCOCCOCCOCCOCCn1cc(CCC(=O)NCCCC[C@@H]3NC(=O)[C@H](CCC(N)=O)NC(=O)[C@@H]4CSCCC(=O)N5CN(CN(C5)C(=O)CCSC[C@@H](C(=O)N5CCC[C@H]5C(=O)N[C@@H](CO)C(=O)N[C@@H](Cc5c[nH]cn5)C(N)=O)NC(=O)[C@H](CC(C)C)NC(=O)[C@H](Cc5c[nH]cn5)NC(=O)[C@H](CC(C)C)NC3=O)C(=O)CCSC[C@H](NC(=O)[C@H](CCCCN)NC(=O)[C@H](CC(=O)O)NC(=O)[C@H](CO)NC(C)=O)C(=O)N[C@@H](CO)C(=O)N[C@@H](C)C(=O)NCC(=O)N[C@@H](Cc3c[nH]c5ccccc35)C(=O)N[C@@H](CC(C)C)C(=O)N[C@@H]([C@@H](C)O)C(=O)N[C@@H](CCSC)C(=O)N4)nn1)C(=O)N[C@H](C)C(=O)N1CCC[C@H]1C(=O)N[C@@H](Cc1ccc(O)cc1)C(=O)N2 [BCY11017] | 4 fold | – | –
CCCC[C@@H]1NC(=O)[C@H](Cc2ccc(O)cc2)NC(=O)[C@@H]2CCCN2C(=O)[C@H](CC(=O)O)NC(=O)[C@H](C)NC(=O)[C@H](Cc2ccccc2)NC(=O)[C@@H]2CSCCC(=O)N3CN(CN(C3)C(=O)CCSC[C@@H](C(=O)N[C@@H](C)C(N)=O)NC1=O)C(=O)CCSC[C@H](NC(C)=O)C(=O)N[C@@H](CC(C)(C)C)C(=O)N1CCC[C@H]1C(=O)N[C@@H](CCC(=O)O)C(=O)N[C@H](CCCCNC(=O)Cn1cc(CCC(=O)NCCCC[C@@H]3NC(=O)[C@H](CCC(N)=O)NC(=O)[C@@H]4CSCCC(=O)N5CN(CN(C5)C(=O)CCSC[C@@H](C(=O)N5CCC[C@H]5C(=O)N[C@@H](CO)C(=O)N[C@@H](Cc5c[nH]cn5)C(N)=O)NC(=O)[C@H](CC(C)C)NC(=O)[C@H](Cc5c[nH]cn5)NC(=O)[C@H](CC(C)C)NC3=O)C(=O)CCSC[C@H](NC(=O)[C@H](CCCCN)NC(=O)[C@H](CC(=O)O)NC(=O)[C@H](CO)NC(C)=O)C(=O)N[C@@H](CO)C(=O)N[C@@H](C)C(=O)NCC(=O)N[C@@H](Cc3c[nH]c5ccccc35)C(=O)N[C@@H](CC(C)C)C(=O)N[C@@H]([C@@H](C)O)C(=O)N[C@@H](CCSC)C(=O)N4)nn1)C(=O)N1CCC[C@H]1C(=O)N[C@@H](Cc1ccc(O)cc1)C(=O)N2 [BCY11377] | 6 fold | – | –
